Legend:
Assay in all cases: Eurofins kinase panel
Type in all cases: biochemical
Settings in all cases: read-out: Inhibition rate (%)
ARK5(h) = biological target: T1, ARK5(h) (Homo sapiens, UniProt O60285)
T1 construct: purchased Eurofins (KinaseProfiler)
T1 sequence (O60285 1-661): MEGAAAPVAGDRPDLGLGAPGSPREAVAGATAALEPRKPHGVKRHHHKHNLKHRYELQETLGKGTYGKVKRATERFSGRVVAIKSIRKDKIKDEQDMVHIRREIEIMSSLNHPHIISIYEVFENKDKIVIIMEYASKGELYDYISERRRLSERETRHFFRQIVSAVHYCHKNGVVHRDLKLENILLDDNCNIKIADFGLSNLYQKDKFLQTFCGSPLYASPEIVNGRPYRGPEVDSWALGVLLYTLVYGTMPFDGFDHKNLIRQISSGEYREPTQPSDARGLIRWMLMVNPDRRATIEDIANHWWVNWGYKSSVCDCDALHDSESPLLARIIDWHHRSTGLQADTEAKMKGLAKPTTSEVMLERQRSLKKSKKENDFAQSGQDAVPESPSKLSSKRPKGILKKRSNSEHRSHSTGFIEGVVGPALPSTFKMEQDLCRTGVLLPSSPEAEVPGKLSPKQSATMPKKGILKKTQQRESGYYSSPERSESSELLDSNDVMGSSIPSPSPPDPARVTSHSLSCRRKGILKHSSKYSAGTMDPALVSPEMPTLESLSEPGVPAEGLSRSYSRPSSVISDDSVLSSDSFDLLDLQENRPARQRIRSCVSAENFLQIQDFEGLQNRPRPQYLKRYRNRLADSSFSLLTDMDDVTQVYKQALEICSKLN

CDK4/cyclinD3(h) = biological target: T2, CDK4/cyclinD3(h) (Homo sapiens, UniProt P11802)
T2 construct: purchased Eurofins (KinaseProfiler)

EphA5(h) = biological target: T3, EphA5(h) (Homo sapiens, UniProt P54756)
T3 construct: purchased Eurofins (KinaseProfiler)

GRK6(h) = biological target: T4, GRK6(h) (Homo sapiens, UniProt P43250)
T4 construct: purchased Eurofins (KinaseProfiler)

LRRK2(h) = biological target: T5, LRRK2(h) (Homo sapiens, UniProt Q5S007)
T5 construct: purchased Eurofins (KinaseProfiler)

MLCK(h) = biological target: T6, MLCK(h) (Homo sapiens, UniProt Q15746)
T6 construct: purchased Eurofins (KinaseProfiler)

PI3KC2α(h) = biological target: T7, PI3KC2α(h) (Homo sapiens, UniProt O00443)
T7 construct: purchased Eurofins (KinaseProfiler)

PKCδ(h) = biological target: T8, PKCδ(h) (Homo sapiens, UniProt Q05655)
T8 construct: purchased Eurofins (KinaseProfiler)

PKCε(h) = biological target: T9, PKCε(h) (Homo sapiens, UniProt Q02156)
T9 construct: purchased Eurofins (KinaseProfiler)
T9 sequence (Q02156 1-737): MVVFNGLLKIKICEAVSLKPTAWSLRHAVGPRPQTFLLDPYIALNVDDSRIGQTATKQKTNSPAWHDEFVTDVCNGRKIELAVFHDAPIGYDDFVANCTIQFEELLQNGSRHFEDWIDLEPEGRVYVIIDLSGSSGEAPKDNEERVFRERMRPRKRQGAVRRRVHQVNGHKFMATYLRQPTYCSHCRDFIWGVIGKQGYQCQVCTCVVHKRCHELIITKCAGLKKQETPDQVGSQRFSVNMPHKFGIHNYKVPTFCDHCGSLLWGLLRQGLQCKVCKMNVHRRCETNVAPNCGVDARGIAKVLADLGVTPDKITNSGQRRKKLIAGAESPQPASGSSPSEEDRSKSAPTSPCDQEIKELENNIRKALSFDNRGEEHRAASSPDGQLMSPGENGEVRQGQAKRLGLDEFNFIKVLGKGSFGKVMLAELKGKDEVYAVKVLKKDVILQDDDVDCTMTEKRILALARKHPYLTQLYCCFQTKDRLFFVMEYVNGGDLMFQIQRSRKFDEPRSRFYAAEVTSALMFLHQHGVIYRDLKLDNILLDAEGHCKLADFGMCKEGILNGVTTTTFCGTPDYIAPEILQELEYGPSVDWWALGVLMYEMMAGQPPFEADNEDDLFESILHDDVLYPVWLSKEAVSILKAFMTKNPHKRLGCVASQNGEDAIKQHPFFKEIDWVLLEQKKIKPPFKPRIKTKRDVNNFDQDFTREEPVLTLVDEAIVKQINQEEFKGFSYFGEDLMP

TSSK2(h) = biological target: T10, TSSK2(h) (Homo sapiens, UniProt Q96PF2)
T10 construct: purchased Eurofins (KinaseProfiler)
T10 sequence (Q96PF2 1-358): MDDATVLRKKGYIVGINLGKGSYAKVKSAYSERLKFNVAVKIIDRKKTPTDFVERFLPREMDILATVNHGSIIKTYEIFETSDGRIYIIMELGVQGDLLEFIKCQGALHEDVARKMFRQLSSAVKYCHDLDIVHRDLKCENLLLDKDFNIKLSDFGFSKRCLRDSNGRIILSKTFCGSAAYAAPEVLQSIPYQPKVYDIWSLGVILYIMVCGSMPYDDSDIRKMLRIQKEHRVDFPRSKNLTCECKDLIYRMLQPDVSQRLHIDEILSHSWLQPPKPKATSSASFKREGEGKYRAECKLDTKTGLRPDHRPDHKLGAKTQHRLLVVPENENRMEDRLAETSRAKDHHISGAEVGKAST

cKit(D816V)(h) = biological target: T11, cKit(D816V)(h) (Homo sapiens, UniProt P10721, D816V)
T11 construct: purchased Eurofins (KinaseProfiler)

T7 sequence (O00443 whole entry): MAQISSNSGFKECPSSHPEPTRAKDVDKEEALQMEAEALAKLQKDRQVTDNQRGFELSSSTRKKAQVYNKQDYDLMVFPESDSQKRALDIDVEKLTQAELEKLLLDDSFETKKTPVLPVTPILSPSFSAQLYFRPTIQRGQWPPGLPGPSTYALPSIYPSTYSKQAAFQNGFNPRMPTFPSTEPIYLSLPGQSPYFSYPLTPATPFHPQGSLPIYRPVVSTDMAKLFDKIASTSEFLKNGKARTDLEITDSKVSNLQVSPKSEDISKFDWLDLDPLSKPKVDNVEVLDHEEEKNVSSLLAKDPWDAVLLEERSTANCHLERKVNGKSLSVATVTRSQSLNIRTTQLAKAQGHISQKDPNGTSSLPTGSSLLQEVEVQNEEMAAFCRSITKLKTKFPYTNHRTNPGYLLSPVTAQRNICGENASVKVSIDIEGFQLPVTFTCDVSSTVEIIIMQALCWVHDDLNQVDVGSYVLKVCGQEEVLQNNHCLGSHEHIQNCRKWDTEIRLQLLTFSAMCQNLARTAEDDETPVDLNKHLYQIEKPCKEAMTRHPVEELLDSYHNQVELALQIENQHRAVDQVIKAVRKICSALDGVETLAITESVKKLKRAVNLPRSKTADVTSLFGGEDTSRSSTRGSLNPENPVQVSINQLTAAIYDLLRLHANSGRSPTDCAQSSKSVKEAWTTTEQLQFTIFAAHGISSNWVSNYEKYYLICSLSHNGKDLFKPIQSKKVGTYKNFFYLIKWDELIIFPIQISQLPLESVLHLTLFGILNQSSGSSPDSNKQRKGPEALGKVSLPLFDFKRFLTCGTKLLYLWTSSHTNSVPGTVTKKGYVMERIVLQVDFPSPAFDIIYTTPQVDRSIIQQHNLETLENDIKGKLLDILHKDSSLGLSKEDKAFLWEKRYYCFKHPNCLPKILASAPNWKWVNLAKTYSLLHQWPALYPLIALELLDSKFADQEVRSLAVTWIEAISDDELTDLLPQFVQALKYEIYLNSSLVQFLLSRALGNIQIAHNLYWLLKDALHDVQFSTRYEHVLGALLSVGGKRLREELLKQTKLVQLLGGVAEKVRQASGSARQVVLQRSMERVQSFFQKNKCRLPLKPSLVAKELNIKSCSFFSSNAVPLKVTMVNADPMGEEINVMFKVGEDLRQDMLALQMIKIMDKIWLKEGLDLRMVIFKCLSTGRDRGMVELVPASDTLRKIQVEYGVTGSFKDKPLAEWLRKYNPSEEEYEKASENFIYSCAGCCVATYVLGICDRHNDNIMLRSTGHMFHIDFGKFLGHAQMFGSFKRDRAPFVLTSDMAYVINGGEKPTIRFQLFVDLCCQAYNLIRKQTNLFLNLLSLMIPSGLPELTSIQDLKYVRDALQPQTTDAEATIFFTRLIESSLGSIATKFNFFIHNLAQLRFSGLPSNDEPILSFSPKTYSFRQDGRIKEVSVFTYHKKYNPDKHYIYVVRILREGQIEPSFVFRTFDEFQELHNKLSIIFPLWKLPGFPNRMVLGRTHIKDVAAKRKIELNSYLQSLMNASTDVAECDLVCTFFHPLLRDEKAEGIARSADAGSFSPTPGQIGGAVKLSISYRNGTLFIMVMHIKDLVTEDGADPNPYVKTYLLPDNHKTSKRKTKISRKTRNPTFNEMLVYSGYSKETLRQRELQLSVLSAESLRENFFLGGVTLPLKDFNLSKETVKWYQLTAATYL
T8 sequence (Q05655 whole entry): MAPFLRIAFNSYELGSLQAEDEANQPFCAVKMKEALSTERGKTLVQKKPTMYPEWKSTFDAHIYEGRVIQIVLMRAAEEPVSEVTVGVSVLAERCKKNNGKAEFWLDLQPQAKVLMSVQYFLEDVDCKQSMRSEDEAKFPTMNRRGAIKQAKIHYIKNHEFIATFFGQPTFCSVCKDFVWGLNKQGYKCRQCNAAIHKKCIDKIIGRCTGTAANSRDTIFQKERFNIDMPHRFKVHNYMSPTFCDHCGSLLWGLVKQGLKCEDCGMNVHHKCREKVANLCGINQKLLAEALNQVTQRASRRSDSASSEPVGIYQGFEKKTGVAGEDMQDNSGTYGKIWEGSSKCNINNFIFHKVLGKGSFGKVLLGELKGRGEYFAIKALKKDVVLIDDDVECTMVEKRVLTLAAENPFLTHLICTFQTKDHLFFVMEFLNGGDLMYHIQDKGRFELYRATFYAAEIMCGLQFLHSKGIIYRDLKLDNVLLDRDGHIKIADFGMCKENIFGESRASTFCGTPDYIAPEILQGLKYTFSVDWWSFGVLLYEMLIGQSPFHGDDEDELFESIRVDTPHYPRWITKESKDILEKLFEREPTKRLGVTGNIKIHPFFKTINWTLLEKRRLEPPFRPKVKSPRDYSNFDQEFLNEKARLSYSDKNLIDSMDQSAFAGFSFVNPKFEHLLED
T6 sequence (Q15746 whole entry): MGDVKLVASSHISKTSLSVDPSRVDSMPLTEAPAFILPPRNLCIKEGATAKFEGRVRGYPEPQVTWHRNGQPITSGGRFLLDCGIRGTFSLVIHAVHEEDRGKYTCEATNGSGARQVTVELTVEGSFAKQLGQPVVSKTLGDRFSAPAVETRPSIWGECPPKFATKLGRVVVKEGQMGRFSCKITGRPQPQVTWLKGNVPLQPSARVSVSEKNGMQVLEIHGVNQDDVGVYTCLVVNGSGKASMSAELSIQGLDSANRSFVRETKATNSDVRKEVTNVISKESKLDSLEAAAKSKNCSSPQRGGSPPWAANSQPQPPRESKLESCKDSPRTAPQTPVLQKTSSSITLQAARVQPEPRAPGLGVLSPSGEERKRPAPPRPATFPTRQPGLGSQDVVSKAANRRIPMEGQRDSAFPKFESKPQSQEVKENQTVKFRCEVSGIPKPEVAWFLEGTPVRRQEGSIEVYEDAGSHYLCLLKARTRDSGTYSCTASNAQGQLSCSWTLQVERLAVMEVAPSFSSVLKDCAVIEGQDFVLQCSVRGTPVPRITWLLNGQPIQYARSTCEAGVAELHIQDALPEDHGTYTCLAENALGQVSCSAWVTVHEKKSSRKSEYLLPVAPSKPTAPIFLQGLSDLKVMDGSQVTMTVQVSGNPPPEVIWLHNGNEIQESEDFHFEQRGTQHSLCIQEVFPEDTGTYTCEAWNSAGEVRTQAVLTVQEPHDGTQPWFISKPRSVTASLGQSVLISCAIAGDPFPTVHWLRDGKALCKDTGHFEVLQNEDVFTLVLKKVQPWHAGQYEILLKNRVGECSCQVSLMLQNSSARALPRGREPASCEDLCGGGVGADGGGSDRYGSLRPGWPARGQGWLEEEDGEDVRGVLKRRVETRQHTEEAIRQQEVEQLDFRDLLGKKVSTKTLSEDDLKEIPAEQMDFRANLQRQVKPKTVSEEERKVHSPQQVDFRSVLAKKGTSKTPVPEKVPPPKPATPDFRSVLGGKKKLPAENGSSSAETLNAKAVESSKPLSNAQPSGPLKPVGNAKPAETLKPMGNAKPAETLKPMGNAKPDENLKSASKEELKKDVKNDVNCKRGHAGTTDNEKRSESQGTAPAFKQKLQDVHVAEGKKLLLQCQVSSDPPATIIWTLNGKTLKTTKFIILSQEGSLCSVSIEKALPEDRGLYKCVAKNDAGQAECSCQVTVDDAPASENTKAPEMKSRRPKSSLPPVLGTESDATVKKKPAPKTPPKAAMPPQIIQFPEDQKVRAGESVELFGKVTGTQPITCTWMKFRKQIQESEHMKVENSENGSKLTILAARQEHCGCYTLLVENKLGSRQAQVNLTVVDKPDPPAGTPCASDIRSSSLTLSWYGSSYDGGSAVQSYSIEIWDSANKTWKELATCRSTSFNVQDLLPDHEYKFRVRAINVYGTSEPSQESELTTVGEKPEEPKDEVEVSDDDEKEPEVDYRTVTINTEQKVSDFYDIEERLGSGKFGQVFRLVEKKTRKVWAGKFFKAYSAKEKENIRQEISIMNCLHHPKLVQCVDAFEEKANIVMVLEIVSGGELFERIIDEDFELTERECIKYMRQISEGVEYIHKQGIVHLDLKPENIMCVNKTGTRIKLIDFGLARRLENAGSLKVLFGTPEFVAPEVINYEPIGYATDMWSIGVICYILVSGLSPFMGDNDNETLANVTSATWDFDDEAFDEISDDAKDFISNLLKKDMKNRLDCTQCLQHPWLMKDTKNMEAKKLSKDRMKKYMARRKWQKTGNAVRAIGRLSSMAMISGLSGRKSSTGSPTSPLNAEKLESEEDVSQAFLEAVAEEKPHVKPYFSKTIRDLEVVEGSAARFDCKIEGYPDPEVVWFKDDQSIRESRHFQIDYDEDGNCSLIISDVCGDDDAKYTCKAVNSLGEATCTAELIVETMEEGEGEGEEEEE
T4 sequence (P43250 whole entry): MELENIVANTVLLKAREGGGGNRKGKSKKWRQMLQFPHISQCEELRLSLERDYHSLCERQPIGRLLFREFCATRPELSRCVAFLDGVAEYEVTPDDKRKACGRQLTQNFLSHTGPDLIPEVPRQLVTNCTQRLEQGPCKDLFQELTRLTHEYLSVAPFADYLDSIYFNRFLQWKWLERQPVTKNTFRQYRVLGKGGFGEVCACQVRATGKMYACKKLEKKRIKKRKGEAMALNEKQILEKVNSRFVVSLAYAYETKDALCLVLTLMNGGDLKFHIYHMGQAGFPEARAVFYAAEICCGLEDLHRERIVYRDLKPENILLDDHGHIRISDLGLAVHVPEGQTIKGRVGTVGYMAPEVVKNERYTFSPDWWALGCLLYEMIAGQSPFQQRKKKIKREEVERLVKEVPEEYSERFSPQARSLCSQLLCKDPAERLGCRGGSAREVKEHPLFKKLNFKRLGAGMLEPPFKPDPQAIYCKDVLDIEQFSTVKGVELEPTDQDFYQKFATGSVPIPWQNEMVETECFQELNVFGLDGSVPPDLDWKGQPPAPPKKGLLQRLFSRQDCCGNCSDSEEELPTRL

COc1cc(OC)c(Cl)c(-c2ccc3c(NC(=O)c4ccc(N5CCNC(C)(C)C5)cc4)n[nH]c3n2)c1Cl [3D185]
inhibition at 0.01 µM (ARK5(h); 10 nM): 11%
inhibition at 0.1 µM (ARK5(h); 100 nM): 16%
inhibition at 1 µM (ARK5(h); 1000 nM): 13%
inhibition at 0.01 µM (CDK4/cyclinD3(h); 10 nM): 5%
inhibition at 0.1 µM (CDK4/cyclinD3(h); 100 nM): -4%
inhibition at 1 µM (CDK4/cyclinD3(h); 1000 nM): 11%
inhibition at 0.01 µM (EphA5(h); 10 nM): 11%
inhibition at 0.1 µM (EphA5(h); 100 nM): 10%
inhibition at 1 µM (EphA5(h); 1000 nM): 13%
inhibition at 0.01 µM (GRK6(h); 10 nM): -4%
inhibition at 0.1 µM (GRK6(h); 100 nM): -6%
inhibition at 1 µM (GRK6(h); 1000 nM): -5%
inhibition at 0.01 µM (LRRK2(h); 10 nM): -10%
inhibition at 0.1 µM (LRRK2(h); 100 nM): -3%
inhibition at 1 µM (LRRK2(h); 1000 nM): 21%
inhibition at 0.01 µM (MLCK(h); 10 nM): 5%
inhibition at 0.1 µM (MLCK(h); 100 nM): -1%
inhibition at 1 µM (MLCK(h); 1000 nM): 11%
inhibition at 0.01 µM (PI3KC2α(h); 10 nM): -5%
inhibition at 0.1 µM (PI3KC2α(h); 100 nM): 1%
inhibition at 1 µM (PI3KC2α(h); 1000 nM): 1%
inhibition at 0.01 µM (PKCδ(h); 10 nM): 5%
inhibition at 0.1 µM (PKCδ(h); 100 nM): 4%
inhibition at 1 µM (PKCδ(h); 1000 nM): -1%
inhibition at 0.01 µM (PKCε(h); 10 nM): -4%
inhibition at 0.1 µM (PKCε(h); 100 nM): -10%
inhibition at 1 µM (PKCε(h); 1000 nM): -6%
inhibition at 0.01 µM (TSSK2(h); 10 nM): 6%
inhibition at 0.1 µM (TSSK2(h); 100 nM): 5%
inhibition at 1 µM (TSSK2(h); 1000 nM): -4%
inhibition at 0.01 µM (cKit(D816V)(h); 10 nM): -7%
inhibition at 0.1 µM (cKit(D816V)(h); 100 nM): 1%
inhibition at 1 µM (cKit(D816V)(h); 1000 nM): 3%

Reference: publication PMC6704710, “Preclinical evaluation of 3D185, a novel potent inhibitor of FGFR1/2/3 and CSF-1R, in FGFR-dependent and macrophage-dominant cancer models” (Journal of Experimental & Clinical Cancer Research : CR, 2019)
